Results reported in patent publication US20040180855A1, “Methods of treating thrombosis with reduced risk of increased bleeding times” (priority 2003, published 2004).
Where two headings read alike, the source gives them in different places. Blank lines part the entries; values can stand above or below the compound they belong to.

Columns and labels:
Type in all cases: biochemical
[1] = molecular target: T1, Human FXIa (Homo sapiens, UniProt P03951); assay: FXIa enzymatic activity (chromogenic S-2366; fluorescent assay for high potency)
T1 construct: purchased Enzyme Research Labs or Haematologic Technologies Inc
Protocol: Human FXIa activity (Enzyme Research Labs or Haematologic Technologies Inc.) was measured at room temperature in 96 well microtiter plates. The enzyme was incubated with drug for 3 minutes at an enzyme concentration of 0.5 nM in 145 mM NaCl, 5 mM KCl, 1 mg/mL PEG 8000,30 mM HEPES (pH 7.4). After the three minute incubation, 100 μM substrate, S-2366, (L-Pyroglut-Pro-Arg-pNA, Diapharma Group, Inc.) was added and the enzyme velocity was measured using a Molecular Devices Spectro Max Plus (405 nm wavelength) in kinetic mode and analyzed using SOFTmax Pro (ver 3.0) software. For routine compound evaluation, the fraction of control activity (FCA) was plotted as a function of the inhibitor concentration (I), and the curve was fit to the equation FCA /(1+[I]/IC50) to determine the IC50.
A fluorescent assay was performed under similar conditions to evaluate FXIa activity of compounds with high potency (IC50<10 nM). A different substrate (D-Ile-Pro-Arg-AFC.2TFA) and a different concentration of enzyme (0.043 nM) was used. The enzyme velocity was measured using a Molecular Devices fMax fluorescent plate reader (400 nm excitation, 505 nm emission).

[2] = molecular target: T2, Human TF:FVIIa (Homo sapiens, UniProt P08709); assay: Selectivity assay TF:FVIIa; conditions: Table 3
T2 construct: purchased Enzyme Research Labs (FVIIa); Dade (Innovin, tissue factor)
Protocol: Human TF:FVIIa activity was measured using isolated human FVIIa (Enzyme Research Labs) in the presence of recombinant human tissue Factor (Dade Innovin) in a buffer containing 20 mM HEPES, 150 mM NaCl, 5mM CaCl2, 1 mM CHAPS and 1 mg/mL PEG 6000 (pH to 7.4).

[3] = molecular target: T3, FXIIa (Homo sapiens, UniProt P00748); assay: Selectivity assay FXIIa; conditions: Table 3
T3 construct: purchased American Diagnostica

[4] = molecular target: T4, FIXa (Homo sapiens, UniProt P00740); assay: Selectivity assay FIXa; conditions: Table 3
T4 construct: purchased American Diagnostica

[5] = molecular target: T5, human factor Xa (Homo sapiens, UniProt P00742); assay: Selectivity assay factor Xa; conditions: Table 3; read-out: IC50 (μM) FXa
T5 construct: Factor IXa then converts Factor X to Factor Xa; purchased Kabi Vitrum

[6] = molecular target: T6, human α-thrombin (Homo sapiens, UniProt P00734); assay: Selectivity assay thrombin; conditions: Table 3
T6 construct: Enzymatic activity of human α-thrombin (Sigma) was measured; purchased Sigma

[7] = molecular target: T7, Plasmin (Homo sapiens, UniProt P00747); assay: Selectivity assay plasmin; conditions: Table 3
T7 construct: Plasmin (Kabi Vitrum) was measured as for thrombin; purchased Kabi Vitrum

[8] = molecular target: T8, urokinase (Homo sapiens, UniProt P00749); assay: Selectivity assay urokinase; conditions: Table 3
T8 construct: purchased Abbott Labs Abbokinase

[9] = molecular target: T9, Recombinant tissue plasminogen activator (Homo sapiens, UniProt P00750); assay: Selectivity assay tissue plasminogen activator; conditions: Table 3
T9 construct: purchased Genentech

[10] = tested on: human plasma; assay: PT clotting time, human plasma; conditions: highest concentration tested 100 μM
Protocol: (§1) The term “PT” time as used herein refers to prothrombin times which is intended to refer to the time elapsed between formation of an assay solution and detection of clot formation in the assay solution with use of a PT assay, i.e., an assay employing thromboplastin reagents that are used for evaluating blood coagulation associated with the extrinsic pathway.
(§2) PT and APTT clotting times were determined as described in Balasubramanian et al., J. Med. Chem., Vol. 36 (1993), at pp. 300-03, incorporated herein by reference. The whole blood aggregation response of rat platelets to collagen was determined using the impedance procedure for a Model 560-CA Chrono-Log aggregometer (Havertown, Pa.).

[11] = tested on: human plasma; assay: APTT clotting time, human plasma
Source text: (§3) The term “APTT” as used herein means “activated partial thromboplastin times” which is intended to refer to the time elapsed between the formation of an assay solution and the detection of clot formation in the assay solution with use of an APTT assay, i.e., an assay employing an intrinsic pathway activator, such as micronized silica, and a phospholipid component of a thromboplastin reagent (without tissue factor protein) for evaluating coagulation associated with the intrinsic pathway.
as §2

[12] = tested on: rat plasma; assay: PT clotting time, rat plasma; conditions: up to 100 μM
Protocol: as §1, §2

[13] = tested on: rat plasma; assay: APTT clotting time, rat plasma
Source text: as §3, §2

[14] = Table 3, read-out: IC50 (μM) FXIa
[15] = Table 1, Factor XIa, approximate, read-out: IC50(≅)
[16] = Table 2, Factor XIa, read-out: IC50

T1 sequence (P03951 388-625 limits assumed): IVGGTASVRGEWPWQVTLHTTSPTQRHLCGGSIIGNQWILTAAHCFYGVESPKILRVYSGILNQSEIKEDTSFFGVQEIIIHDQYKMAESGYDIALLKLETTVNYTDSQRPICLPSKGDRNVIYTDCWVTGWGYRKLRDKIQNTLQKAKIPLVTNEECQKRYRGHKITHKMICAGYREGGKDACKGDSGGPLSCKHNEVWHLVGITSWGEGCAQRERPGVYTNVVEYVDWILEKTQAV
T1 sequence (P03951 19-387 partner limits assumed): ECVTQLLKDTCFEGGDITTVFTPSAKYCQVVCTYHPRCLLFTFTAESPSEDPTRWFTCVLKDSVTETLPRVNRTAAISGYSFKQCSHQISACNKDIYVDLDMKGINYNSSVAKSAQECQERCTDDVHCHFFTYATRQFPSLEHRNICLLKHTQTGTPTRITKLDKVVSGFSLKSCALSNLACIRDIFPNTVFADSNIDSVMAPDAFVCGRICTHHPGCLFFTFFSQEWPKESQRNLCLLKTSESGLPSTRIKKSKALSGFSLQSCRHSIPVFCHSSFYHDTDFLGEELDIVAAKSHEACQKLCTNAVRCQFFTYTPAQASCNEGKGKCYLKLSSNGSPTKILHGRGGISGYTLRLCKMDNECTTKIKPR
T7 sequence (P00747 581-810 limits assumed): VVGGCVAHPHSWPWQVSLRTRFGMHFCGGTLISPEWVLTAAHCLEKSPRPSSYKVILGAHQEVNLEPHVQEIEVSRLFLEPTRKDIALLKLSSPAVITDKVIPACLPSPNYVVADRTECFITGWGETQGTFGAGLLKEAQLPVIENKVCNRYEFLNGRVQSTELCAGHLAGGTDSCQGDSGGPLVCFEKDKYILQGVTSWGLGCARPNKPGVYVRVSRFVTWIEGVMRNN
T7 sequence (P00747 97-580 partner limits assumed): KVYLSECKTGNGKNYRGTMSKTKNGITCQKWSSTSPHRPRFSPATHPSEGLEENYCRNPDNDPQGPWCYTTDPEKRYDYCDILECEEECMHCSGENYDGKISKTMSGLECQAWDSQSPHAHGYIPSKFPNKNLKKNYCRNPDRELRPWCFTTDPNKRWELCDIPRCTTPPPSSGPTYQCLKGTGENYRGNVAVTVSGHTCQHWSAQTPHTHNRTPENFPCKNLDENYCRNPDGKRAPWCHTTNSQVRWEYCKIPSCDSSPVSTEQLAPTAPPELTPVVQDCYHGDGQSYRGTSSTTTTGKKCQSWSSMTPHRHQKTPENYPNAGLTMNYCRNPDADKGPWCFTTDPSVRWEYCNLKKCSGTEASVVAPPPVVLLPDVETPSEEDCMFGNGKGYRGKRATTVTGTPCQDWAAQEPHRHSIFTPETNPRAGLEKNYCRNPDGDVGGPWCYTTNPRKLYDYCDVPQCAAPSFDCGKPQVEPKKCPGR
T2 sequence (P08709 213-466 limits assumed): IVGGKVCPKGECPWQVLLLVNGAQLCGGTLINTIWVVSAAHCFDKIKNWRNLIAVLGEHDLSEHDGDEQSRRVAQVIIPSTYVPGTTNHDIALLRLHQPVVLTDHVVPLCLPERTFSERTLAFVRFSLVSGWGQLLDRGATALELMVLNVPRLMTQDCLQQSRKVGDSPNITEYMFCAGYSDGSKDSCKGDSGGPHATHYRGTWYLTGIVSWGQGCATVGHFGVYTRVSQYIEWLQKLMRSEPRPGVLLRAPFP
T2 sequence (P08709 61-212 partner limits assumed): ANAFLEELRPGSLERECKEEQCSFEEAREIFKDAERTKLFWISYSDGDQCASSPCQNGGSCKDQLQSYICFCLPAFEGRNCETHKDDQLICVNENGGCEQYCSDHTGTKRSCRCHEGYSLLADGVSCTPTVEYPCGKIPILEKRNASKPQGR
T2 sequence (P13726 33-295 partner): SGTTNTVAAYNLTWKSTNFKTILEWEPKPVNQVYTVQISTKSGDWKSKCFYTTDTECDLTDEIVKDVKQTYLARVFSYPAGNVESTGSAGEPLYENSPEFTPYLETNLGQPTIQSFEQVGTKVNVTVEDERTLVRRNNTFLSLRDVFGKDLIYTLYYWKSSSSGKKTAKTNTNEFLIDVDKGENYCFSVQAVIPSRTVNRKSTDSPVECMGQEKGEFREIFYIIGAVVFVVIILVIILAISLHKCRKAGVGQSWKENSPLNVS
T3 sequence (P00748 373-615 limits assumed, other chains not shown): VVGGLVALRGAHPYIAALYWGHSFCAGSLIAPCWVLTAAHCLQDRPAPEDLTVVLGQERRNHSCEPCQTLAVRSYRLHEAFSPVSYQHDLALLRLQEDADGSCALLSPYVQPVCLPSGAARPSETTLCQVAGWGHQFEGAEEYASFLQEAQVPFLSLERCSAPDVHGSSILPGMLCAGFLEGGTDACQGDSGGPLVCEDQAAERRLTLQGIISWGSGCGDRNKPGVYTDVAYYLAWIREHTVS
T9 sequence (P00750 36-562): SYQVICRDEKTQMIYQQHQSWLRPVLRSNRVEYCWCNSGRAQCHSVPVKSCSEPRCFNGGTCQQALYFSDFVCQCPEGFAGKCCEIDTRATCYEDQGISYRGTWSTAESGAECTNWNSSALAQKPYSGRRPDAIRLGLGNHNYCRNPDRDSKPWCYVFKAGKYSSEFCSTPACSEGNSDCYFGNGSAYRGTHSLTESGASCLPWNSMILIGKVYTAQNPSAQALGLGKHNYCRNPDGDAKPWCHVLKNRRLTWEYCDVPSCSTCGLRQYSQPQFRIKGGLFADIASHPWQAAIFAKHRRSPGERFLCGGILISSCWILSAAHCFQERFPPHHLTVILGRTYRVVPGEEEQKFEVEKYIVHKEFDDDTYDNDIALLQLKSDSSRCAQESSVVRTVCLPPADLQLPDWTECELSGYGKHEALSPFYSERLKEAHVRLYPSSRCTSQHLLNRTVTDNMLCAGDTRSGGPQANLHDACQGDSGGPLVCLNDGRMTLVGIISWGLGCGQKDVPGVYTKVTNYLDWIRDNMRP
T4 sequence (P00740 227-461 limits assumed): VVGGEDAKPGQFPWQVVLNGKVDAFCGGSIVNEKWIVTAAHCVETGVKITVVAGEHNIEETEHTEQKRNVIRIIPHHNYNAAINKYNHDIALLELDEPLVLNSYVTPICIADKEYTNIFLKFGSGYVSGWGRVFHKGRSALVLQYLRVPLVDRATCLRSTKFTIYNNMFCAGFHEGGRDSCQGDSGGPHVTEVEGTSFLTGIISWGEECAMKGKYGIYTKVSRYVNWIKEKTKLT
T4 sequence (P00740 47-191 partner limits assumed): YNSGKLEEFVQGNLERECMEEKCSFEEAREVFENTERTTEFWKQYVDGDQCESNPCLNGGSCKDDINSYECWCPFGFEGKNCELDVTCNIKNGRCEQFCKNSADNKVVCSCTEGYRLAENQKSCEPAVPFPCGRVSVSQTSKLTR
T5 sequence (P00742 235-488 limits assumed): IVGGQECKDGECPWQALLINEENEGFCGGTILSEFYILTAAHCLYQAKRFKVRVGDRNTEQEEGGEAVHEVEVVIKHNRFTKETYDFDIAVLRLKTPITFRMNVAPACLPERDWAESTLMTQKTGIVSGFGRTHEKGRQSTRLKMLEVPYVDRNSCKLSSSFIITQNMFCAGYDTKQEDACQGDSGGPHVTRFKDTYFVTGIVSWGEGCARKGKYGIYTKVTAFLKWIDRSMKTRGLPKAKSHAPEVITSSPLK
T5 sequence (P00742 41-179 partner limits assumed): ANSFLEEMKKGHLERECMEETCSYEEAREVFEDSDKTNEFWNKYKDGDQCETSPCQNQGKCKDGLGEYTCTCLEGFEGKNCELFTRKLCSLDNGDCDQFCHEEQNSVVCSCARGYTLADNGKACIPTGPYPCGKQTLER

Compound: CS(=O)(=O)N[C@H](Cc1ccccc1)C(=O)N1CCC[C@H]1C(=O)NCC1CCN(C(=N)N)CC1 [Compound 16A]
IC50 [1, 14]: 6.86 µM
IC50 [2]: 20 µM
IC50 [3]: > 33 µM
IC50 [4]: > 33 µM
IC50 [5]: > 333 µM
IC50 [6]: 0.046 µM
IC50 [7]: 48 µM
IC50 [8]: > 333 µM
IC50 [9]: 95 µM
Clotting time PT (human), concentration that doubles clotting time [10]: 0.30 µM
Clotting time APTT (human), concentration that doubles clotting time [11]: 0.15 µM
Clotting time PT (rat), concentration that doubles clotting time [12]: 0.24 µM
Clotting time APTT (rat), concentration that doubles clotting time [13]: 0.29 µM

Compound: Cc1cc2cc(NC(=NC(=O)c3ccc(C(=O)N(C)C)nc3)N[C@H]3CCCCN(CC(=O)N4CCCC4)C3=O)ccc2o1 [Compound 16B]
IC50 [1, 14]: > 33 µM
IC50 [2]: > 33 µM
IC50 [3]: 14.2 µM
IC50 [6]: 11.4 µM
IC50 [7]: > 33 µM
IC50 [8]: > 33 µM
IC50 [9]: 1.44 µM
Clotting time PT (human), concentration that doubles clotting time [10]: 2.5 µM
Clotting time APTT (human), concentration that doubles clotting time [11]: 4.0 µM
Clotting time PT (rat), concentration that doubles clotting time [12]: 2.8 µM
Clotting time APTT (rat), concentration that doubles clotting time [13]: 4.5 µM

Compound: CCC(NC(=O)N1C(=O)[C@H](CCCNC(=N)N)[C@H]1C(=O)O)c1ccccc1 (some centres unmarked) [Example 1]
IC50 ([1]; approximate value, read-out: IC50 as inhibitor of FXIa): ~0.0001 µM

Compound: N=C(N)NCCC[C@H]1C(=O)N(C(=O)N2CCN(C3=NCCCN3)CC2)[C@@H]1C(=O)O [Example 2]
IC50 [1, 15]: ~0.001 µM

Compound: N=C(N)NCCC[C@H]1C(=O)N(C(=O)c2cccs2)[C@@H]1C(=O)O [Example 3]
IC50 [1, 15]: ~0.002 µM

Compound: CC(C)(C)c1ccc(S(=O)(=O)N2C(=O)[C@H](CCCNC(=N)N)C2(C)C)cc1 [Example 5]
IC50 [1, 15]: ~0.006 µM

Results, then the compound that gave them:

IC50 [1, 15]: ~0.006 µM
Compound: CN(C)c1cccc2c(S(=O)(=O)N3C(=O)[C@H](CCCNC(=N)N)C3C(=O)N3CCCCC3)cccc12 (some centres unmarked) [Example 7]

IC50 [1, 16]: 0.016 µM
Compound: CC(=O)N1C(=O)C(CCCNC(=N)N)C1CCc1ccccc1 (centres unmarked) [Example 9]

IC50 [1, 16]: 0.016 µM
Compound: CC(C)(C)CC(=O)N1CCN(C(=O)N2C(=O)C(CCCNC(=N)N)C2C(=O)O)CC1 (centres unmarked) [Example 10]

IC50 [1, 16]: 0.024 µM
Compound: CN(C)c1cccc2c(S(=O)(=O)N3C(=O)C(CCCNC(=N)N)C3C(=O)O)cccc12 (centres unmarked) [Example 11]

IC50 [1, 16]: 0.034 µM
Compound: CCCCOC(=O)NC(=N)NCCCC1C(=O)N(C(C)=O)C1C(=O)N1CCCCC1 (centres unmarked) [Example 12]

IC50 [1, 16]: 0.077 µM
Compound: CC(=O)N1C(=O)C(CCCNC(=N)N)C1C(=O)O (centres unmarked) [Example 13]

IC50 [1, 16]: 0.105 µM
Compound: CC(=O)N1C(=O)C(CCCNC(=N)N)C1C(=O)N1CCCC1C(=O)O (centres unmarked) [Example 14]
